Source: ChEMBL document CHEMBL5247627, “1-Methyl-3-((4-(quinolin-4-yloxy)phenyl)amino)-1H-pyrazole-4-carboxamide derivatives as new rearranged during Transfection (RET) kinase inhibitors capable of suppressing resistant mutants in solvent-front regions” (Eur J Med Chem, 2022)
Calls of active or inactive are those of the source. The calls are words filed in the database; no cut-off is given here.

Experiments:
BaF3 [1] = assay: Antiproliferative activity against mouse BaF3 cells expressing rearranged during transfection kinase V804M-CCDC6 incubated for 74 to 76 hrs by cell counting kit 8 method
BaF3 [2] = assay: Antiproliferative activity against mouse BaF3 cells expressing rearranged during transfection kinase G810R-CCDC6 incubated for 74 to 76 hrs by cell counting kit 8 method
[3] = target: Proto-oncogene tyrosine-protein kinase receptor Ret/Coiled-coil domain-containing protein 6 (Mus musculus) (UniProt P35546+D3YZP9); assay: Inhibition of wild type rearranged during transfection kinase/CCDC6 phosphorylation in mouse BaF3 cells measured at 100 nM for 4 hrs by Western blot analysis; assay type: cell-based
Proto-oncogene tyrosine-protein kinase receptor Ret/Coiled-coil domain-containing protein 6 (Mus musculus), sequence (D3YZP9 whole entry, looked up, the tested form may be a part): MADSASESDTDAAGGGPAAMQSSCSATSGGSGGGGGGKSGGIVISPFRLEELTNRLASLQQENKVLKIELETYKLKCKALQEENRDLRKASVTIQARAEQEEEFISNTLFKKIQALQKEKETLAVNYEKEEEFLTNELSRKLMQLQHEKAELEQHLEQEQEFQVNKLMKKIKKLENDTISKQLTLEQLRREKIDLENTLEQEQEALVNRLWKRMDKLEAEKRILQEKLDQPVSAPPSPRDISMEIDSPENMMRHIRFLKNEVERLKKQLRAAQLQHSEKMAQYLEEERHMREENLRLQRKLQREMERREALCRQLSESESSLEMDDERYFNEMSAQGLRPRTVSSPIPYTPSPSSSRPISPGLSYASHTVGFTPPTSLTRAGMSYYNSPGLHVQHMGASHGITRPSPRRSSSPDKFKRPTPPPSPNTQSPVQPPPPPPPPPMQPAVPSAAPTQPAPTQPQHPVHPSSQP
Proto-oncogene tyrosine-protein kinase receptor Ret/Coiled-coil domain-containing protein 6 (Mus musculus), sequence (P35546 whole entry, looked up, the tested form may be a part): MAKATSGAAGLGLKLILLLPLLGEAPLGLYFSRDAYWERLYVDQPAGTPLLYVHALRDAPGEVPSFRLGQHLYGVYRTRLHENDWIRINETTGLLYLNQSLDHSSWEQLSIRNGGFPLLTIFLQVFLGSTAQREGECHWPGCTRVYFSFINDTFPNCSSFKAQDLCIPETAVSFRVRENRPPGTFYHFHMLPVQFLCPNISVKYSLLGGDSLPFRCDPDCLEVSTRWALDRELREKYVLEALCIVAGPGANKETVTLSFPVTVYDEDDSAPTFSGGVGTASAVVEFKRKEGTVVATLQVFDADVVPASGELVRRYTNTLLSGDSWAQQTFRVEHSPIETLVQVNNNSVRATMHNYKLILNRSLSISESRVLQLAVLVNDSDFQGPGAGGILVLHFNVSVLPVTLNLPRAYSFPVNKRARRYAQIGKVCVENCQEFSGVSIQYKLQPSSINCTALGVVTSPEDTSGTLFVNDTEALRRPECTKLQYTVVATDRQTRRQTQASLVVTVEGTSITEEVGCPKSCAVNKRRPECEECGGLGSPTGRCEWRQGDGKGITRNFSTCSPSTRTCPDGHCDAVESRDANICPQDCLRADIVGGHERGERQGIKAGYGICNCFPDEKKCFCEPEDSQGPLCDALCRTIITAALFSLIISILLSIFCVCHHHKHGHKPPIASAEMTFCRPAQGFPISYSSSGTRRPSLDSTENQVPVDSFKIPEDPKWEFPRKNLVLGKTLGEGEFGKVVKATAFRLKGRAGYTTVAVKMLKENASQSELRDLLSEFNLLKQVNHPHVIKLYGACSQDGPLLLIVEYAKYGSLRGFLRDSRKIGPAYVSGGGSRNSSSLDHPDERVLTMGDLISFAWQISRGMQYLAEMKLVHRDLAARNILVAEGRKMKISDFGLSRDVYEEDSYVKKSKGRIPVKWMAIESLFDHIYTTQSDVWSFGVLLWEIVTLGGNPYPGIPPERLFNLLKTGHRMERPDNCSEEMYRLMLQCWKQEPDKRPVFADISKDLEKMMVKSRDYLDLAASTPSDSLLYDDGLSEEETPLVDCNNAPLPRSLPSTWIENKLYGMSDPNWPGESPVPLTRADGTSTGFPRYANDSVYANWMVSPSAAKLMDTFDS

BaF3 [4] = assay: Induction of apoptosis in mouse BaF3 cells harbouring CCDC6-RET G810C assessed as early apoptotic cells measured at 100 nM for 48 hrs by Annexin V-FITC staining based Guava easyCyte flow cytometric analysis (reference value: 6.10 %); assay type: functional
BaF3 [5] = assay: Induction of apoptosis in mouse BaF3 cells harbouring CCDC6-RET G810R assessed as necrotic cells measured at 33.3 nM for 48 hrs by Annexin V-FITC staining based Guava easyCyte flow cytometric analysis (reference value: 0.64 %); assay type: functional
BaF3 [6] = assay: Induction of apoptosis in mouse BaF3 cells harbouring CCDC6-RET G810R assessed as viable cells measured at 100 nM for 48 hrs by Annexin V-FITC staining based Guava easyCyte flow cytometric analysis (reference value: 89.5 %); assay type: functional; settings: read-out: Activity
BaF3 [7] = assay: Induction of apoptosis in mouse BaF3 cells harbouring CCDC6-RET G810R assessed as early apoptotic cells measured at 100 nM for 48 hrs by Annexin V-FITC staining based Guava easyCyte flow cytometric analysis (reference value: 6.46 %); assay type: functional
BaF3 [8] = assay: Induction of apoptosis in mouse BaF3 cells harbouring CCDC6-RET G810R assessed as late apoptotic cells measured at 100 nM for 48 hrs by Annexin V-FITC staining based Guava easyCyte flow cytometric analysis (reference value: 3.4 %); assay type: functional
BaF3 [9] = assay: Induction of apoptosis in mouse BaF3 cells harbouring CCDC6-RET G810R assessed as viable cells measured at 300 nM for 48 hrs by Annexin V-FITC staining based Guava easyCyte flow cytometric analysis (reference value: 89.5 %); assay type: functional; settings: read-out: Activity
BaF3 [10] = assay: Induction of apoptosis in mouse BaF3 cells harbouring CCDC6-RET G810R assessed as early apoptotic cells measured at 300 nM for 48 hrs by Annexin V-FITC staining based Guava easyCyte flow cytometric analysis (reference value: 6.46 %); assay type: functional
BaF3 [11] = assay: Induction of apoptosis in mouse BaF3 cells harbouring CCDC6-RET G810R assessed as late apoptotic cells measured at 300 nM for 48 hrs by Annexin V-FITC staining based Guava easyCyte flow cytometric analysis (reference value: 3.4 %); assay type: functional
BaF3 [12] = assay: Antitumor activity against mouse BaF3 cells harbouring CCDC6-RET G810C cells xenografted in CB17-SCID mouse assessed as reduction in tumor growth at 10 mg/kg ip qd administered for 12 days measured every 2 days relative to control; assay type: functional; settings: BaF3, 288 h, time 12 day, read-out: TGI
BaF3 [13] = settings: Mus musculus, dose 100.0 nM, time 4.0 hrs
BaF3 [14] = settings: Mus musculus, dose 100.0 nM, time 4.0 hrs; remark: listed apart in the source
BaF3 [15] = settings: Mus musculus, dose <= 100.0 nM, time 4.0 hrs
BaF3 [16] = settings: Mus musculus, CB17-SCID, Tumor/tissue, dose 10-30 mg/kg, route ip, time 13.0 day
BaF3 [17] = settings: Mus musculus, CB17-SCID, Tumor/tissue, dose 10-30 mg/kg, route ip, time 13.0 day; remark: listed apart in the source

SMILES: COc1cc2nccc(Oc3ccc(Nc4nn(C)cc4C(=O)NC45CC6CC(CC(C6)C4)C5)c(F)c3)c2cc1C(N)=O
- IC50 (BaF3 [1]): 24.4 nM
- IC50 (BaF3 [2]): 53.2 nM
- inhibition [3]: Active
- Activity (BaF3 [4]): 17.19%
- Activity (BaF3 [5]): 0.17%
- viability at 0.1 µM (BaF3 [6]): 88.6%
- Activity (BaF3 [7]): 9.4%
- Activity (BaF3 [8]): 1.8%
- viability at 0.3 µM (BaF3 [9]): 63.9%
- Activity (BaF3 [10]): 32.67%
- Activity (BaF3 [11]): 3.21%
- inhibition in vivo at 10 mg/kg (BaF3 [12]): 17.1%
- inhibition (BaF3 [13]): Active
- inhibition (BaF3 [14]): Active
- inhibition (BaF3 [15]): Dose-Dependent Effect
- inhibition (BaF3 [16]): Active
- inhibition (BaF3 [17]): Active
